Reference: patent US20170314074A1, “LPA-ASSOCIATED PROTEIN AND RNA EXPRESSION” (Intermune, Inc., priority 2014, published 2017)

Tested on: normal human lung fibroblasts
Assay: mRNA expression after LPA induction, Affymetrix Human Gene ST arrays, fibroblasts (Table 4A)
Type: cell-based
Settings: fibroblasts; 1 μM LPA; average of 3 experiments
Procedure: Changes in gene expression after 3 hours of LPA induction were profiled on Affymetrix Human Gene ST 2.0 microarrays; differentially expressed genes identified by ANOVA with FDR <0.05 and fold-change >1.2. Process networks associated with differentially expressed genes were defined using MetaCore. Changes in secreted protein expression after 24 hours of LPA induction were profiled on an aptamer-based proteomic platform (1129 proteins); differentially expressed proteins identified by t-test.
Total RNA was isolated from normal human lung fibroblasts, human bronchial epithelial cells, and human pulmonary alveolar epithelial cells treated for […] with LPA and/or LPAR1 inhibitor. Each treatment condition was assayed in triplicate. Samples were profiled on Affymetrix Human Gene ST Arrays 1.0 and/or 2.0 after preparation using the Ambion WT Expression Kit according to manufacturers' instructions.
Data normalization and all subsequent analyses were performed in Partek Genomics Suite (Partek, St. Louis, Mo.). Data were normalized using the Robust Multi-array Average (RMA) algorithm. Differentially expressed genes were identified by ANOVA with correction for multiple comparisons with p-value with FDR<0.05. A fold-change cut-off was not strictly applied, although the majority of the differentially expressed genes identified have fold-changes greater than 1.2. Genes were included if they were statistically significant for (1) LPA-induction and (2) response to treatment with an LPAR1 inhibitor.
In Tables 1-5 The differentially expressed secreted proteins set forth in Tables 1, 2, and 5 and the differentially expressed mRNAs set forth in Table 3 and 4 were identified by visual inspection of individual dot-plots.
For the gene and protein expression analysis primary fibroblasts (NHLF product #CC-2512 from Lonza group LTD) and primary epithelial cells (NHBE Product #CC-2540 from Lonza; HPAEpiC Product #3200 from Sciencell (USA, California)) were cultured as recommended by the manufacturer, except they were cultured on collagen coated plates. As part of the induction protocol cells were starved overnight in low (0.2 or 0.1% serum) or no serum (0%), prior to stimulation with LPA.

## lysophosphatidic acid [LPA]
  Effect of 1 μM LPA (fold-change), BIRC3 mRNA: 3.17 fold-change
  Effect of 1 μM LPA (fold-change), CHIC2 mRNA: 2.36 fold-change
  Effect of 1 μM LPA (fold-change), CNST mRNA: 2.26 fold-change
  Effect of 1 μM LPA (fold-change), CTGF mRNA: 4.71 fold-change
  Effect of 1 μM LPA (fold-change), CYR61 mRNA: 6.52 fold-change
  Effect of 1 μM LPA (fold-change), DKK1 mRNA: 6.36 fold-change
  Effect of 1 μM LPA (fold-change), DUSP1 mRNA: 2.76 fold-change
  Effect of 1 μM LPA (fold-change), EFNB2 mRNA: 2.61 fold-change
  Effect of 1 μM LPA (fold-change), GPR37 mRNA: 2.80 fold-change
  Effect of 1 μM LPA (fold-change), HAS2 mRNA: 2.61 fold-change
  Effect of 1 μM LPA (fold-change), HBEGF mRNA: 5.11 fold-change
  Effect of 1 μM LPA (fold-change), IER3 mRNA: 2.94 fold-change
  Effect of 1 μM LPA (fold-change), IL6 mRNA: 4.19 fold-change
  Effect of 1 μM LPA (fold-change), KPRP mRNA: 4.31 fold-change
  Effect of 1 μM LPA (fold-change), KRTAP1-5 mRNA: 6.49 fold-change
  Effect of 1 μM LPA (fold-change), KRTAP4-12 mRNA: 3.23 fold-change
  Effect of 1 μM LPA (fold-change), LIF mRNA: 5.15 fold-change
  Effect of 1 μM LPA (fold-change), MCP-1/CCL2 mRNA: 5.58 fold-change
  Effect of 1 μM LPA (fold-change), MIR218-1: 3.07 fold-change
  Effect of 1 μM LPA (fold-change), PAI-1 mRNA: 2.28 fold-change
  Effect of 1 μM LPA (fold-change), PDCD1LG2 mRNA: 2.52 fold-change
  Effect of 1 μM LPA (fold-change), PTX3 mRNA: 2.34 fold-change
  Effect of 1 μM LPA (fold-change), SERPINB2 mRNA: 2.44 fold-change
  Effect of 1 μM LPA (fold-change), TNFAIP3 mRNA: 3.44 fold-change
  Effect of 1 μM LPA (fold-change), TXNIP mRNA: −3.79 fold-change
  Effect of 1 μM LPA (fold-change), UGCG mRNA: 2.41 fold-change
  Effect of 1 μM LPA (fold-change), VGLL3 mRNA: 2.96 fold-change
